Reference: patent US20090043129A1 (priority 2005, published 2009)
Where two headings read alike, the source gives them in different places. Blank lines part the entries; values can stand above or below the compound they belong to.

What was measured:
CB2 = biological target: T1, CB2 (Rattus norvegicus, UniProt Q9QZN9); assay: Preliminary selection with rat spleen membranes; type: binding; conditions: rat brain and spleen membranes, read-out: CB2 (n.a. class, IC50 in preliminary selection)
T1 construct: from tissue; host or cells: rat spleen membranes
T1 sequence (Q9QZN9 1-360): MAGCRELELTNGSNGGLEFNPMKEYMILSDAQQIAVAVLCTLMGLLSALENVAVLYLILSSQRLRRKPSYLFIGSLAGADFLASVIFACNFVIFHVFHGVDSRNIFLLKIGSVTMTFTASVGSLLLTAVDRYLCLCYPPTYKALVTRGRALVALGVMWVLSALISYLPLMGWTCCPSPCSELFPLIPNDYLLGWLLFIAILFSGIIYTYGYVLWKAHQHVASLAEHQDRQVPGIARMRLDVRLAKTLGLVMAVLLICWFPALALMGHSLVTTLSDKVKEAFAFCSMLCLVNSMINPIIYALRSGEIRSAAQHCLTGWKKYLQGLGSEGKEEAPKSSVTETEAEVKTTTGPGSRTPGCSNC

[1] = biological target: human recombinant CB1 receptor (Homo sapiens, UniProt P21554); type: binding; set-up: purchased Perkin-Elmer; host or cells: COS cells
Chain of human recombinant CB1 receptor (P21554 whole entry): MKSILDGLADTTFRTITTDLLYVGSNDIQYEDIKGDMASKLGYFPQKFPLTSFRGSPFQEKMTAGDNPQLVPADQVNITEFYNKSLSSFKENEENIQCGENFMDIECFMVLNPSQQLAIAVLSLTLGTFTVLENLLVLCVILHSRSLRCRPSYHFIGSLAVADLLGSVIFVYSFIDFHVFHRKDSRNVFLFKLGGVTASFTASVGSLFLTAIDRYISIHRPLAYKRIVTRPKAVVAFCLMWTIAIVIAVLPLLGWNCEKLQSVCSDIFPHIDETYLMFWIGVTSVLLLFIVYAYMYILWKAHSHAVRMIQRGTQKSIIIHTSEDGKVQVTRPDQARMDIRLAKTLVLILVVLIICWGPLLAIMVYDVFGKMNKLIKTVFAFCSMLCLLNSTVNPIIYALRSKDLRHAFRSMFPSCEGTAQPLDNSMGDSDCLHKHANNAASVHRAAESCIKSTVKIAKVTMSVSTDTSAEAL

[2] = biological target: T2, Fatty Acid Amide Hydrolase (FAAH) (Rattus norvegicus, UniProt P97612); assay: biochemical
T2 sequence (P97612 1-579): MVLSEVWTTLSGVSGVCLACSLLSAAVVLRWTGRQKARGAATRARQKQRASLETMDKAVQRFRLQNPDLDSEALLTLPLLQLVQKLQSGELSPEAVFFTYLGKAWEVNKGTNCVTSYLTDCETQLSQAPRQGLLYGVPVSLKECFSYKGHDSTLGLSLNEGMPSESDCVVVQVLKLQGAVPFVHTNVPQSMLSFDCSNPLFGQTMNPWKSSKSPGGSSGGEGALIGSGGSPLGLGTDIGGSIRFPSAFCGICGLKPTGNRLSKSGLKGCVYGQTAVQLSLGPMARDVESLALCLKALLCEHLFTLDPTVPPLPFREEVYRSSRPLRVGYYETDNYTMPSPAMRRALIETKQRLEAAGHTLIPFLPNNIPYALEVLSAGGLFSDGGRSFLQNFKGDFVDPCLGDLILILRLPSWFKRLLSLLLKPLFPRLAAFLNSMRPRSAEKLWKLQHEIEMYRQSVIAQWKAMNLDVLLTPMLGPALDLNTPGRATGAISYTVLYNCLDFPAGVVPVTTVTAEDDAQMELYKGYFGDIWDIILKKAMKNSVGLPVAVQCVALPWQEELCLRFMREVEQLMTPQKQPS
Description: Assay for Fatty Acid Amide Hydrolase (FAAH)
The effect of compounds on the enzymatic hydrolysis of [^14C]anandamide (6 μM) was studied using membranes prepared from rat brain incubated with increasing concentrations of compounds in 50 mM Tris-HCl, pH 9, for 30 minutes at 37° C. (Di Marzo et al., 2002). [^14C]ethanolamine produced from [^14C]anandamide hydrolysis was measured counting the scintillation of the aqueous phase after extraction of the incubation mixture with 2 volumes of CHCl3/CH3OH (2:1 by volume). […]

[3] = system: Anandamide Membrane Transporter (AMT); assay: Anandamide uptake by RBL-2H3 cells; type: cell-based
Description: Assay for the Anandamide Membrane Transporter (AMT)
The effect of the compounds on the uptake of anandamide by the RBL-2H3 cells was studied as described (Di Marzo et al., 2002). Cells were incubated with [^14C]anandamide (4 μM) for 5 minutes at 37° C., in the presence or absence of varying concentrations of the inhibitors. Residual [^14C]anandamide in the incubation media after extraction with CHCl3/CH3OH (2:1 by volume) was used as a measure of the anandamide that was taken up by cells. Data are expressed as the concentration that produces 50% of inhibition of anandamide uptake (IC50) calculated with GraphPad.

[4] = biological target: human recombinant CB2 receptor (Homo sapiens, UniProt P34972); assay: CB2 binding, [3H]CP55,940 displacement, membranes from transfected COS cells; set-up: purchased Perkin-Elmer; host or cells: COS cells; conditions: for Ki: recombinant human CB2, COS cell membranes
Chain of human recombinant CB2 receptor (P34972 whole entry): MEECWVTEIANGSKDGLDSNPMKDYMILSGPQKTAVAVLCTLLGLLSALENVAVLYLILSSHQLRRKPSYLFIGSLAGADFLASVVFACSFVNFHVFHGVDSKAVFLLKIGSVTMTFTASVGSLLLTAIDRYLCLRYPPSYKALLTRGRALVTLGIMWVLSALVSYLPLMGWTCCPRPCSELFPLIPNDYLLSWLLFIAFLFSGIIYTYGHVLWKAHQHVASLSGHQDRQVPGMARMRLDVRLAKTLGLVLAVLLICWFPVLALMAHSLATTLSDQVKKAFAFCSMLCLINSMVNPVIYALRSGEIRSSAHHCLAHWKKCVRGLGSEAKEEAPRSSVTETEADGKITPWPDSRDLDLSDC

[5] = recombinant human CB1, COS cell membranes
[6] = rat brain membranes, read-out: FAAH (n.a. class)
[7] = anandamide uptake, read-out: AMT IC50

melting point: 106 °C
SMILES: CCCCCCc1ccc(O)cc1OCCCCCC(=O)Nc1ccc(O)cc1

SMILES: CCCCCCc1ccc(O)cc1OCCCCCCCCCCCCCCCC(=O)Nc1ccc(O)cc1 [Compound 56, 16-(2-Hexyl-5-hydroxy-phenoxy)-hexadecanoic acid (4-hydroxy-phenyl)-amide]
IC50 (CB2): > 10 µM
Ki [1, 5]: 3 µM
melting point: 82.4 °C

SMILES: CCCCCCCCCCCCCCCc1cccc(OCCCCCC(=O)NCCO)c1 [Compound 15, 6-(3-Pentadecyl-phenoxy)-hexanoic acid (2-hydroxy-ethyl)-amide]
IC50 [2, 6]: > 10 µM
melting point: 62.7 °C
IC50 [3, 7]: > 25 µM

SMILES: CCCCCCc1ccc(O)cc1OCCCCCC(=O)NC1CC1 [Compound 49, 6-(2-Hexyl-5-hydroxy-phenoxy)-hexanoic acid cyclopropylamide]
IC50 [2]: > 10 µM
Ki [4]: 3.57 µM

SMILES: O=C(CCCCCCCCCCCCCCCOc1cccc(O)c1)NCCO [Compound 36, 16-(3-Hydroxy-phenoxy)-hexadecanoic acid (2-hydroxy-ethyl)-amide]
IC50 (CB2): > 10 µM
melting point: 94.5 °C

SMILES: O=C(CCCCCCCCCCCCCCCOc1cccc(O)c1)Nc1ccc(O)cc1 [Compound 38, 16-(3-Hydroxy-phenoxy)-hexadecanoic acid (4-hydroxy-phenyl)-amide]
Ki [1, 5]: 5 µM

SMILES: O=C(CCCCCCCCCCCCCCCOc1cccc(O)c1)NC1CC1 [Compound 37, 16-(3-Hydroxy-phenoxy)-hexadecanoic acid cyclopropylamide]
IC50 (CB2): > 10 µM
Ki [1, 5]: 4.25 µM
melting point: 105.6 °C

SMILES: CCCCCc1cc(O)cc(OCCCCCCCCCCCCCCCC(=O)NC2CC2)c1 [Compound 28, 16-(3-Hydroxy-5-pentyl-phenoxy)-hexadecanoic acid cyclopropylamide]
IC50 (CB2): > 10 µM
melting point: 91 °C

SMILES: CCCCCc1cc(O)cc(OCCCCCC(=O)NC2CC2)c1 [Compound 22, 6-(3-Hydroxy-5-pentyl-phenoxy)-hexanoic acid cyclopropylamide]
IC50 [2]: > 10 µM
Ki [4]: 0.96 µM

SMILES: O=C(CCCCCOc1cccc(O)c1)NC1CC1 [Compound 31, 6-(3-Hydroxy-phenoxy)-hexanoic acid cyclopropylamide]
IC50 [2]: > 10 µM

SMILES: CCCCCc1cc(O)cc(OCCCCCCCCCCCCCCCC(=O)Nc2ccc(O)cc2)c1 [Compound 29, 16-(3-Hydroxy-5-pentyl-phenoxy)-hexadecanoic acid (4-hydroxy-phenyl)-amide]
IC50 (CB2): > 10 µM
melting point: 89.5 °C

SMILES: CCCCCc1cc(O)cc(OCCCCCC(=O)Nc2ccc(O)cc2)c1 [Compound 23, 6-(3-Hydroxy-5-pentyl-phenoxy)-hexanoic acid (4-hydroxy-phenyl)amide]
IC50 [2]: > 10 µM
melting point: 69.2 °C

SMILES: O=C(CCCCCCCCCCOc1cccc(O)c1)NC1CC1 [Compound 34, 11-(3-Hydroxy-phenoxy)-undecanoic acid cyclopropilamide]
IC50 [2]: > 10 µM
Ki [4]: 5.4 µM

melting point: 128.4 °C
SMILES: CCCCCCc1ccc(OCCCCCC(=O)Nc2ccc(O)cc2)cc1O

SMILES: CCCCCCc1ccc(OCCCCCC(=O)NCCO)cc1O [Compound 39, 6-(3-Hydroxy-4-hexyl-phenoxy)-hexanoic acid (2-hydroxy-ethyl)-amide]
IC50 [2]: > 10 µM
Ki [4]: 6.43 µM
melting point: 71.2 °C

SMILES: CCCCCCCCCCCCCCCc1cccc(OCCCCCC(=O)Nc2ccc(O)cc2)c1 [Compound 17, 6-(3-Pentadecyl-phenoxy)-hexanoic acid (4-hydroxy-phenyl)-amide]
IC50 [2, 6]: > 10 µM
melting point: 103.2 °C
IC50 [3, 7]: > 25 µM

SMILES: CCCCCc1cc(O)cc(OCCCCCCCCCCCCCCCC(=O)NCCO)c1 [Compound 27, 16-(3-Hydroxy-5-pentyl-phenoxy)-hexadecanoic acid (2-hydroxy-ethyl)-amide]
IC50 (CB2): > 10 µM
Ki [1, 5]: 12.5 µM
melting point: 84 to 85 °C

SMILES: CCCCCCc1ccc(OCCCCCCCCCCC(=O)NC2CC2)cc1O [Compound 43, 11-(3-Hydroxy-4-hexyl-phenoxy)-undecanoic acid cyclopropylamide]
IC50 [2]: > 10 µM
selectivity for CB2 with respect to the CB1 receptors ([4]; CB1 Ki / CB2 Ki): at least 26 times
Ki [4]: 0.35 µM
IC50 [3, 7]: > 25 µM

SMILES: CCCCCCc1ccc(OCCCCCCCCCCCCCCCC(=O)Nc2ccc(O)cc2)cc1O [Compound 47, 16-(3-Hydroxy-4-hexyl-phenoxy)-hexadecanoic acid (4-hydroxy-phenyl)-amide]
IC50 (CB2): > 10 µM
melting point: 133.2 °C

SMILES: CCCCCCc1ccc(O)cc1OCCCCCCCCCCCCCCCC(=O)NC1CC1 [Compound 55, 16-(2-Hexyl-5-hydroxy-phenoxy)-hexadecanoic acid cyclopropylamide]
Ki [4]: 2.49 µM
Ki [1]: 5.5 µM
melting point: 72.8 °C

SMILES: O=C(CCCCCCCCCCOc1cccc(O)c1)NCCO [Compound 33, 11-(3-Hydroxy-phenoxy)-undecanoic acid (2-hydroxy-ethyl)-amide]
IC50 (CB2): > 10 µM
IC50 [2]: > 10 µM
melting point: 72.1 °C

melting point: 82 °C
SMILES: CCCCCCCCCCCCCCCc1cccc(OCCCCCCCCCCC(=O)NC2CC2)c1 [Compound 19, 11-(3-Pentadecyl-phenoxy)-undecanoic acid cyclopropylamide]

SMILES: CCCCCCc1ccc(O)cc1OCCCCCC(=O)NCCO [Compound 48, 6-(2-Hexyl-5-hydroxy-phenoxy)-hexanoic acid (2-hydroxy-ethyl)-amide]
IC50 [2, 6]: > 10 µM

SMILES: O=C(CCCCCOc1cccc(O)c1)NCCO [Compound 30, 6-(3-Hydroxy-phenoxy)-hexanoic acid (2-hydroxy-ethyl)-amide]
IC50 [2]: > 10 µM

SMILES: CCCCCCc1ccc(O)cc1OCCCCCCCCCCC(=O)NCCO [Compound 51, 11-(2-Hexyl-5-hydroxy-phenoxy)-undecanoic acid (2-hydroxy-ethyl)-amide]
IC50 [2]: > 10 µM
Ki [4]: 0.42 µM
melting point: 75.4 °C
IC50 [3, 7]: > 25 µM

SMILES: CCCCCc1cc(O)cc(OCCCCCCCCCCC(=O)Nc2ccc(O)cc2)c1 [Compound 26, 11-(3-Hydroxy-5-pentyl-phenoxy)-undecanoic acid (4-hydroxy-phenyl)-amide]
IC50 [2]: > 10 µM
Ki [4]: 1.4 µM
Ki [1, 5]: 3 µM
IC50 ([3]; read-out: AMT (n.a. class)): > 10 µM

SMILES: CCCCCCc1ccc(OCCCCCCCCCCC(=O)NCCO)cc1O [Compound 42, 11-(3-Hydroxy-4-hexyl-phenoxy)-undecanoic acid (2-hydroxy-ethyl)-amide]
IC50 [2, 6]: > 10 µM
Ki [4]: 2.7 µM
melting point: 85.3 °C
IC50 ([3]; read-out: AMT (n.a. class)): > 10 µM

melting point: 107 °C
SMILES: CCCCCCCCCCCCCCCc1cccc(OCCCCCCCCCCC(=O)Nc2ccc(O)cc2)c1 [Compound 20, 11-(3-Pentadecyl-phenoxy)-undecanoic acid (4-hydroxy-phenyl)-amide]

melting point: 83 to 85 °C
SMILES: CCCCCCCCCCCCCCCc1cccc(OCCCCCCCCCCC(=O)NCCO)c1 [Compound 18, 11-(3-Pentadecyl-phenoxy)-undecanoic acid (2-hydroxy-ethyl)-amide]

SMILES: CCCCCCCCCCCCCCCc1cccc(OCCCCCC(=O)NC2CC2)c1 [Compound 16, 6-(3-Pentadecyl-phenoxy)-hexanoic acid cyclopropylamide]
IC50 [2]: > 10 µM
melting point: 67.8 °C

SMILES: CCCCCc1cc(O)cc(OCCCCCC(=O)NCCO)c1 [Compound 21, 6-(3-Hydroxy-5-pentyl-phenoxy)-hexanoic acid (2-hydroxy-ethyl)-amide]
IC50 (CB2): > 10 µM
IC50 [2]: > 10 µM
